Laboratory results taken from patent publication US7217564B2, “Cytotoxic assay and new established cell line of sturgeon origin” (priority 2002, dated 2007).
Where two headings read alike, the source gives them in different places.

Assays:
STIP-1 cells = assay: cells; type: cell-based, Bester (Huso huso X Acipenser ruthenus); settings: for EC50: read-out: EC50 (toxicity concentration value which effects on 50% of the cells); for toxicity ranking to the STIP-1 cells: within the tested series (nine heavy metals / twelve phenols)
From the text: (§1) The Alamar Blue assay is one of the bioassay methods being developed to measure the cellular metabolisms of the animal cells or the like. The Alamar Blue pigment is an oxidation-reduction pigment which should be incorporated in a cell for its reduction. The Alamar Blue pigment has the characteristics to be changed from an oxidation type (non-fluorescence/blue) to a reduction type (fluorescence/red) by the reduction reaction of the respiratory metabolism system done in mitochondria. If the cellular metabolism is normal, the reduction reaction proceeds in normal. On the other hand, if the cellular metabolism becomes abnormal, the oxidation type is remained as it is. Therefore, the abnormality of a cellular metabolism can be determined by measuring the change in color. Furthermore, the measurement of a cellular metabolism may be based on the fluorescence and the light absorption. In this case the fluorescence is monitored by an excitation wavelength of 530 nm to 560 nm and a detection wavelength of 590 nm, and the light absorption is monitored at wavelengths of 570 nm and 600 nm.
Cells were cultured in a 96-well microtiter plate in a CO2 incubator (air atmosphere) at 20° C. until it became confluent. The culture was performed using a culture medium prepared by adding 10% fetal bovine serum (FBS) (manufactured by Gibco Co., Ltd.), penicillin (10 unit/ml) and streptomycin (50 μg/ml) in a Leibovitz's L15 culture medium (manufactured by Gibco Co., Ltd.).
A 0.2M aqueous solution of a specimen (cadmium chloride, CdCl2.2H2O) was prepared and was then sterilized by passing through a filter of 0.2 μm in pore size to be preserved at 4° C. […] For a comparison example, the culture medium in the absence of the specimen was inoculated in a well. After 24 hours passed, an Alamar Blue pigment was added and an additional culture was continued for further 24 hours.
Subsequently, by using a microplate reader, the light absorbance of each well was measured using two wavelengths (570 nm and 600 nm). The inhibition value of a cellular metabolism with the cadmium aqueous solution was measured as a reduction rate of a well (a sample) inoculated with a cadmium aqueous solution to a well only containing the culture medium as a control. The calculation was performed using the following equation.
A=sample well (A570 nm−A600 nm)−blank well (A570 nm−A600 nm), and
B=control well (A570 nm−A600 nm)−blank well (A570 nm−A600 nm).
In addition, (A/B)×100 means a survival rate (%) of cells.
(B) Evaluations of toxicities of eight kinds of heavy metals except of cadmium to the STIP-1 cells were performed by the same way as described in the above (A).

STIP-3 cells = assay: Cytotoxic test using STIP-3 cells, Alamar Blue assay; type: cell-based, Bester (Huso huso X Acipenser ruthenus); settings: 20° C., 24 hours with specimen, then Alamar Blue for further 24 hours, read-out: EC50 (toxicity concentration value which effects on 50% of the cells)
From the text: as §1
Cells were cultured in a 96-well microtiter plate in a CO2 incubator (air atmosphere) at 20° C. until it became confluent. […]
Subsequently, by using a microplate reader, the light absorbance of each well was measured using two wavelengths (570 nm and 600 nm). […]

[1] = Huso huso, STIP-1 cells, 20° C., 24 hours with specimen, then Alamar Blue for further 24 hours
[2] = STIP-1 cells, 20° C., 24 hours with specimen, then Alamar Blue for further 24 hours

Row | Compound | EC50 (STIP-1 cells; [1]) [µM] | EC50 (STIP-1 cells; [2]) [µM] | also measured
1 | Oc1cccc(Cl)c1Cl [2,3-dichlorophenol] | 80 | – | –
2 | O=S(=O)([O-])[O-].[Zn+2] [ZnSO4.7H2O] | – | 400 | –
3 | Tributyl tin | – | 0.9 | EC50 (STIP-1 cells; STIP-1 cells, 20° C., 24 hours with specimen, then Alamar Blue for further 24 hours, listed as tributyl tin): 0.9 µM; toxicity at a concentration lower than other heavy metals (STIP-1 cells; STIP-1 cells, compared with other heavy metals): about 100 times; toxicity ranking to the STIP-1 cells (STIP-1 cells): strongest toxicity
4 | Oc1c(Cl)cccc1Cl [2,6-dichlorophenol] | 900 | – | –
5 | [Cl][Ni][Cl] [NiCl2.6H2O] | – | – | EC50 (STIP-1 cells): > 10000 µM
6 | Oc1ccc(Cl)c(Cl)c1 [3,4-dichlorophenol] | 30 | – | –
7 | O.O.O.O.[Cl][Mn][Cl] [MnCl2.4H2O] | – | – | toxicity to the STIP-1 cells more than that to the culture cells of other fish origins (STIP-1 cells): about 10 times; EC50 (STIP-1 cells): 400 µM
8 | Oc1cc(Cl)c(Cl)cc1Cl [2,4,5-trichlorophenol] | 7 | – | toxicity ranking to the STIP-1 cells (STIP-1 cells): strongest toxicity
9 | Oc1cc(Cl)ccc1Cl [2,5-dichlorophenol] | 56 | – | –
10 | Oc1ccc(Cl)cc1Cl [2,4-dichlorophenol] | 55 | – | –
11 | Oc1c(Cl)c(Cl)c(Cl)c(Cl)c1Cl [Pentachlorophenol] | 90 | – | –
12 | O=[N+]([O-])[O-].O=[N+]([O-])[O-].[Pb+2] [Pb(NO3)2] | – | 3300 | –
13 | O=[N+]([O-])c1ccc(O)cc1 [p-nitrophenol] | 350 | – | –
14 | Oc1c(Cl)cc(Cl)c(Cl)c1Cl [2,3,4,6-tetrachlorophenol] | 9 | – | –
15 | Oc1ccccc1 [Phenol] | – | – | EC50 (STIP-1 cells; Huso huso, 24 h): 8600 µM
16 | [Cl-].[Cl-].[Co+2] [CoCl2.6H2O] | – | 2200 | –
17 | [Cl][Cu][Cl] [CuCl2.2H2O] | – | 1320 | –
18 | HgCl2 | – | – | EC50 (STIP-1 cells): 85 µM
19 | [Cl][Cd][Cl] [cadmium, cadmium chloride] | – | 89 | EC50 (STIP-3 cells): 100 µM
20 | Oc1ccc(Cl)cc1 [p-chlorophenol] | 800 | – | –
